One experiment concerns the target T1, rat H1 receptor (Rattus norvegicus, UniProt P31390).
T1 construct: An H1 receptor membrane preparation was prepared from rat cerebrum; from tissue; host or cells: rat cerebrum
Put plainly: Rat H1 receptor affinity test (Test Example 1). Type of experiment: binding. The note with it: rat cerebrum membrane preparation, [3H]-pyrilamine 2 nmol/L. The method, then: An H1 receptor membrane preparation was prepared from rat cerebrum. […] To the resulting each sample, 50 μL of 8 nmol/L [^3H]-pyrilamine (manufactured by PerkinElmer) (final concentration: 2 nmol/L) was added and mixed. After the mixture was incubated at a room temperature for 30 minutes, the reaction solution was collected on a glass filter by a cell harvester (manufactured by Molecular Devices), and then the filter was washed with the incubation buffer. The glass filter was cut off and transferred in a vial. To the vial was added 5 mL of a scintillator (manufactured by National Diagnostics), and the mixture was shaken for not less than one hour. Thereafter, the radioactive concentration was measured by a liquid scintillation counter.

Another experiment addresses T2, human H1 receptor (Homo sapiens, UniProt P35367).
T2 construct: purchased; host or cells: CHO cells
Briefly: Human H1 receptor affinity test (Test Example 2). It is filed as binding. The note with it: CHO cell membrane preparation expressing human H1 receptor, [3H]-pyrilamine 2 nmol/L. The method, then:
Chinese hamster ovarian cells (CHO cells) having human H1 receptor forcibly express were purchased and used as an H1 receptor membrane preparation. […] To the resulting each sample, 50 μL of 8 nmol/L [^3H]-pyrilamine (final concentration: 2 nmol/L) was added and mixed. […] The glass filter was cut off and transferred in a vial. To the vial was added 5 mL of a scintillator (manufactured by National Diagnostics), and the mixture was shaken for not less than one hour. Thereafter, the radioactive concentration was measured by a liquid scintillation counter.

Experiment [1] deals with histamine-induced skin reaction in rat. Put plainly: Histamine-induced skin reaction test in rat (Test Example 3). It is filed as in vivo. The note with it: oral, histamine 10 μg/0.1 mL/site intradermal, pigment area, read-out: Skin reaction test in rat ID50. The method, then:
[…] One hour after the administration, a 1% Evans Blue physiological saline solution (Tokyo Chemical Industry Co., Ltd.) was administered into the caudal vein in a dose of 5 mL/kg, and immediately histamine 10 μg/0.1 mL/site (manufactured by Wako Pure Chemical Industries, Ltd.) was intradermally administered into the dorsum. Thirty minutes after the administration, the rat was anesthetized with diethyl ether and then euthanized by cervical dislocation. The skin was ablated, and the major axis and minor axis of a spot of the pigment exuded into the skin were measured to calculate the area of the pigment.

Experiment [2] relates to histamine-induced skin reaction in mouse. Put plainly: Skin reaction test in mouse (Test Example 4). Type of experiment: in vivo. The note with it: oral, histamine 3 μg/50 μL/site intradermal, pigment area, read-out: Skin reaction test in mouse ID50. On the procedure:
Each mouse was sheared the day before test and fasted overnight. A low, middle or high dose of each test compound suspended in a 0.5% (W/V) CMC-Na aqueous solution was orally administered to the mouse. One hour after the administration, a 1% Evans Blue physiological saline solution (Tokyo Chemical Industry Co., Ltd.) was administered into the caudal vein in a dose of 10 mL/kg, and immediately histamine 3 μg/50 μL/site was intradermally administered into the dorsum. Thirty minutes after the administration, the mouse was anesthetized with diethyl ether and then euthanized by cervical dislocation. The skin was ablated, and the major axis and minor axis of a spot of the pigment exuded into the skin were measured to calculate the area of the pigment.

Experiment [3] relates to mouse IgE-dependent ear edema model. Put plainly: Inhibitory effects on mouse IgE-dependent ear edema model (Test Example 5).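 As to all read-outs here: doses given 1 h before and 6 h after antigen.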 It is filed as in vivo. The note with it: oral twice a day, dose one-third of ID50 (Dose column of Table D); for Inhibitory effects in each allergic reaction phase: Immediate phase: mouse ear swelling 1 hour after antigen; for Inhibitory effects in each allergic reaction phase: Late phase: mouse ear swelling 24 hours after antigen; for Inhibitory effects in each allergic reaction phase: Very late phase: mouse ear swelling 7 days after antigen. The method, then: (§1) To each mouse, 0.25 mL of an anti-DNP-IgE antibody (manufactured by SIGMA-ALDRICH) was intravenously administered for passive sensitization. On the day following the administration, an antigen (DNFB solution; manufactured by Wako Pure Chemical Industries, Ltd.) was applied on the right ear to induce dermatitis (ear swelling). One hour, 24 hours and 7 days after the application of the antigen, the thickness of the right ear was measured by a thickness measuring apparatus (dial thickness gauge). […] The thickness of the right ear before the sensitization was measured beforehand; the inhibition rates of the swelling in immediate phase, late phase, and very late phase were calculated.

Experiment [4] shares this test system. Briefly: Inhibitory effects on mouse IgE-dependent ear edema model (Test Example 8).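 As to all read-outs here: 5 or 10 times the mouse skin-reaction ID50 per dose.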 It is filed as in vivo. The note with it: oral twice a day, dose a multiple of mouse ID50 (Dose column of Table E); for Inhibitory effects in each allergic reaction phase: Immediate phase: mouse ear swelling 1 hour after antigen; for Inhibitory effects in each allergic reaction phase: Late phase: mouse ear swelling 24 hours after antigen; for Inhibitory effects in each allergic reaction phase: Very late phase: mouse ear swelling 7 days after antigen. The method, then:
as §1

T1 sequence (P31390 whole entry): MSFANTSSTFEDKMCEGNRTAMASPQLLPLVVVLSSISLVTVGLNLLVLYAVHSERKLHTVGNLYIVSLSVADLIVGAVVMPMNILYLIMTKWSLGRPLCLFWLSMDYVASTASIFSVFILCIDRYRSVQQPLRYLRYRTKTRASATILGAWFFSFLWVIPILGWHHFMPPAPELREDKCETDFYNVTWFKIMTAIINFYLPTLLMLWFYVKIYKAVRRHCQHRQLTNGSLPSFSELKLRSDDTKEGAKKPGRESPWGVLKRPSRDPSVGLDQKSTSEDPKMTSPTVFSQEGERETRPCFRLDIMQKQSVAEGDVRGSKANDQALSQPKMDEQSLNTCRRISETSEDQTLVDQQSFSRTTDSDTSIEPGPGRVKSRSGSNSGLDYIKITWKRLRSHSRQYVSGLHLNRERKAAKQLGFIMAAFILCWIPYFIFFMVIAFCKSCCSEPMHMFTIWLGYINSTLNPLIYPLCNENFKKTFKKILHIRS
T2 sequence (P35367 whole entry): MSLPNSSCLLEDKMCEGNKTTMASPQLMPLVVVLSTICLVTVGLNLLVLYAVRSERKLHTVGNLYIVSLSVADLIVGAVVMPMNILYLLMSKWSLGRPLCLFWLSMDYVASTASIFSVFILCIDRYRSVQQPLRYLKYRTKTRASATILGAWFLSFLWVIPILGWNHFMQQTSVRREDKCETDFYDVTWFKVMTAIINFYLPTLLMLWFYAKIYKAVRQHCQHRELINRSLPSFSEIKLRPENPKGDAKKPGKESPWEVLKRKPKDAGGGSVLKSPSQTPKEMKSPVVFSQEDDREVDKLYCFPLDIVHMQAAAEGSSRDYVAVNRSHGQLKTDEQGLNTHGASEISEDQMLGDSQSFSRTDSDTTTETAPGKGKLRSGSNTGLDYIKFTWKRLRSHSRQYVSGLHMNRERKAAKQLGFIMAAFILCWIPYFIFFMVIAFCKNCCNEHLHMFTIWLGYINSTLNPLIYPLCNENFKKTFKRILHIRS

As for `O=C(O)c1cccc(CN2CCN(C(c3ccc(F)cc3)c3ccc(F)cc3)CC2)n1` [Example 11, 6-{4-[bis(4-fluorophenyl)methyl]piperazin-1-ylmethyl}pyridine-2-carboxylic acid], the IC50 was determined as 280 nM at rat H1 receptor and 22 nM on human H1 receptor. The ED50 in experiment [1] came out at 0.3 mg/kg; in experiment [2] it was 0.01 mg/kg. In addition, the “Inhibitory effects in each allergic reaction phase: Immediate phase” value (“Inhibitory effects … Immediate phase” below) in experiment [3] is listed as “++ (++ Inhibitory rate 45 to 25%)”; in experiment [4], “++ (++ Inhibitory rate 45 to 20%)”. Further, the results for the “Inhibitory effects in each allergic reaction phase: Late phase” value in experiment [3] and in experiment [4] were “++ (++ Inhibitory rate 45 to 25%)” and “++ (++ Inhibitory rate 45 to 20%)”, respectively. The “Inhibitory effects in each allergic reaction phase: Very late phase” value (from here on “Inhibitory effects … Very late phase”) is given as “++ (++ Inhibitory rate 45 to 25%)” in experiment [3] and “++ (++ Inhibitory rate 45 to 20%)” in experiment [4].

`O=C(O)c1cccc(CN2CCC(OC(c3ccccc3)c3ccccc3)CC2)n1` [Example 2, 6-(4-benzhydryloxypiperidin-1-ylmethyl)pyridine-2-carboxylic acid]: the values for the concentration for half-maximal inhibition (IC50) on rat H1 receptor and on human H1 receptor were 25 nM and 10 nM, respectively. For the same compound, the ED50 came out at 3.4 mg/kg in experiment [1] and 0.1 mg/kg in experiment [2]. For the same compound, the “Inhibitory effects … Immediate phase” value in experiment [3] was “++ (++ Inhibitory rate 45 to 25%)”; in experiment [4] it was “++ (++ Inhibitory rate 45 to 20%)”. The “Inhibitory effects in each allergic reaction phase: Late phase” value in experiment [3] is recorded as “++ (++ Inhibitory rate 45 to 25%)”; in experiment [4], “++ (++ Inhibitory rate 45 to 20%)”. The “Inhibitory effects … Very late phase” value in experiment [3] was “+ (+ Inhibitory rate 24 to 10%)”; in experiment [4], “+ (+ Inhibitory rate 19 to 10%)”.

In the case of `O=C(O)c1cccc(CN2CCC(=C3c4ccccc4C=Cc4cccnc43)CC2)n1` [Example 71], the values for the IC50 against rat H1 receptor and against human H1 receptor were 16 nM and 14 nM, respectively. Besides, the ED50 in experiment [1] is 0.6 mg/kg; in experiment [2] it was 0.07 mg/kg.

With `O=C(O)c1ccnc(CN2CCC(OC(c3ccccc3)c3ccccc3)CC2)c1` [Example 27], on rat H1 receptor, the 50% inhibitory concentration (IC50) was found to be 31 nM. Moreover, the IC50 at human H1 receptor was 8.9 nM. Besides, in experiment [2], the ED50 stood at 0.03 mg/kg. In addition, in experiment [4], the “Inhibitory effects … Immediate phase” value is reported as “++ (++ Inhibitory rate 45 to 20%)”, the “Inhibitory effects in each allergic reaction phase: Late phase” value was “++ (++ Inhibitory rate 45 to 20%)” and the “Inhibitory effects … Very late phase” value is “++ (++ Inhibitory rate 45 to 20%)”.

For the compound `O=C(O)c1ccnc(CN2CCC(OC(c3ccccc3)c3ccc(F)cc3)CC2)c1` (centres unmarked) [Example 39], the results for the IC50 at rat H1 receptor and on human H1 receptor were 72 nM and 6.8 nM, respectively. Besides, the ED50 in experiment [1] worked out at 1.3 mg/kg; in experiment [2], 0.04 mg/kg. In addition, the “Inhibitory effects … Immediate phase” value in experiment [3] is listed as “++ (++ Inhibitory rate 45 to 25%)”; in experiment [4], “++ (++ Inhibitory rate 45 to 20%)”. Moreover, the “Inhibitory effects in each allergic reaction phase: Late phase” value in experiment [3] is “++ (++ Inhibitory rate 45 to 25%)”; in experiment [4] it was “++ (++ Inhibitory rate 45 to 20%)”. The entries for the “Inhibitory effects … Very late phase” value in experiment [3] and in experiment [4] were “++ (++ Inhibitory rate 45 to 25%)” and “++ (++ Inhibitory rate 45 to 20%)”, respectively.

Turning to `O=C(O)c1cccc(C(F)(F)N2CCC(OC(c3ccccc3)c3ccccc3)CC2)n1` [Example 37, 6-[(4-Benzhydryloxypiperidin-1-yl)difluoromethyl]pyridine-2-carboxylic acid], the concentration for half-maximal inhibition (IC50) against rat H1 receptor came to 75 nM; on human H1 receptor, 12 nM. In addition, the ED50 in experiment [1] was 3.2 mg/kg; in experiment [2], 0.06 mg/kg.

With `O=C(O)c1cccc(CN2CCC(OC(c3ccccc3)c3ccc(F)c(F)c3)CC2)n1` (centres unmarked) [Example 48], the IC50 stood at 53 nM against rat H1 receptor and 25 nM on human H1 receptor. For the same compound, the ED50 worked out at 2.9 mg/kg in experiment [1] and 0.05 mg/kg in experiment [2].

`O=C(O)c1cccc(CN2CCC(=C3c4ccc(Cl)cc4CCc4cccnc43)CC2)c1` [Example 67, 3-[4-(8-Chloro-5,6-dihydrobenzo[5,6]cyclohepta[1,2-b]pyridin-11-ylidene)piperidin-1-ylmethyl]benzoic acid]: the results for the ED50 in experiment [1] and in experiment [2] were 1.2 mg/kg and 0.09 mg/kg, respectively.

For `CN(C)CC/C=C1/c2ccccc2COc2ccc(CC(=O)O)cc21` [Olopatadine], in experiment [3], the “Inhibitory effects … Immediate phase” value is listed as “++ (++ Inhibitory rate 45 to 25%)”, the “Inhibitory effects in each allergic reaction phase: Late phase” value is reported as “− (− Inhibitory rate less than 10%)” and the “Inhibitory effects … Very late phase” value was “+ (+ Inhibitory rate 24 to 10%)”. Moreover, in experiment [4], the “Inhibitory effects … Immediate phase” value is recorded as “++ (++ Inhibitory rate 45 to 20%)”, the “Inhibitory effects in each allergic reaction phase: Late phase” value is “− (− Inhibitory rate less than 10%)” and the “Inhibitory effects … Very late phase” value was “− (− Inhibitory rate less than 10%)”.

On to `O=C(O)CCCN1CCC(O[C@@H](c2ccc(Cl)cc2)c2ccccn2)CC1` [Bepotastine], for which the half-maximal inhibitory concentration (IC50) against rat H1 receptor was found to be 170 nM; against human H1 receptor, 20 nM. In addition, the ED50 in experiment [1] stood at 0.5 mg/kg; in experiment [2], 0.02 mg/kg.

For `O=C(O)c1cccc(CN2CC[C@H](OC(c3ccccc3)c3ccccc3)C2)n1` [Example 129, 6-((S)-3-Benzhydryloxypyrrolidin-1-ylmethyl)pyridine-2-carboxylic acid], on human H1 receptor, the concentration for half-maximal inhibition (IC50) was found to be 5.1 nM. Also, the ED50 in experiment [2] was determined as 0.04 mg/kg. In addition, in experiment [4], the “Inhibitory effects … Immediate phase” value is on record as “++ (++ Inhibitory rate 45 to 20%)”, the “Inhibitory effects in each allergic reaction phase: Late phase” value is reported as “++ (++ Inhibitory rate 45 to 20%)” and the “Inhibitory effects … Very late phase” value was “++ (++ Inhibitory rate 45 to 20%)”.

Turning to `O=C(O)c1cccc(CN2CCC(OC(c3ccccc3)c3ccc(Cl)cc3)CC2)n1` (centres unmarked) [Example 22], the figures for the IC50 against rat H1 receptor and against human H1 receptor were 5.7 nM and 13 nM, respectively. The ED50 stood at 0.5 mg/kg in experiment [1] and 0.01 mg/kg in experiment [2].

As for `O=C(O)c1cc(CN2CCC(OC(c3ccccc3)c3ccccc3)CC2)cs1` [Example 5], the IC50 against rat H1 receptor was 7 nM; against human H1 receptor, 10 nM. Besides, the ED50 in experiment [1] was determined as 1.8 mg/kg; in experiment [2], 0.11 mg/kg.

In the case of `O=C(O)c1cccc(CN2CCC(=C3c4ccccc4C=Cc4cccnc43)CC2)c1` [Example 70], the concentration for half-maximal inhibition (IC50) on rat H1 receptor is 28 nM; at human H1 receptor, 14 nM. For the same compound, the ED50 in experiment [1] was determined as 1.6 mg/kg; in experiment [2], 0.12 mg/kg.

The IC50 is the concentration that inhibits the measured activity by half. The low end stands for greater potency in that assay, the high end for weaker potency in that assay.
